Assay results as given in publication PMC6769468, “Endogenous Neuropeptide Nocistatin Is a Direct Agonist of Acid-Sensing Ion Channels (ASIC1, ASIC2 and ASIC3)” (Biomolecules, 2019).
Ends that are not written are not given here.

Experiments:
rat ASIC1b = target: T1, rat ASIC1b (Rattus norvegicus, UniProt P55926); assay: Whole-cell current activation, rat ASIC1b in X. laevis oocytes; format: cell-based
T1 construct: expressed in transfected cells; host or cells: Xenopus laevis oocytes (injected)
T1 sequence (P55926 1-559 isoform P55926-3): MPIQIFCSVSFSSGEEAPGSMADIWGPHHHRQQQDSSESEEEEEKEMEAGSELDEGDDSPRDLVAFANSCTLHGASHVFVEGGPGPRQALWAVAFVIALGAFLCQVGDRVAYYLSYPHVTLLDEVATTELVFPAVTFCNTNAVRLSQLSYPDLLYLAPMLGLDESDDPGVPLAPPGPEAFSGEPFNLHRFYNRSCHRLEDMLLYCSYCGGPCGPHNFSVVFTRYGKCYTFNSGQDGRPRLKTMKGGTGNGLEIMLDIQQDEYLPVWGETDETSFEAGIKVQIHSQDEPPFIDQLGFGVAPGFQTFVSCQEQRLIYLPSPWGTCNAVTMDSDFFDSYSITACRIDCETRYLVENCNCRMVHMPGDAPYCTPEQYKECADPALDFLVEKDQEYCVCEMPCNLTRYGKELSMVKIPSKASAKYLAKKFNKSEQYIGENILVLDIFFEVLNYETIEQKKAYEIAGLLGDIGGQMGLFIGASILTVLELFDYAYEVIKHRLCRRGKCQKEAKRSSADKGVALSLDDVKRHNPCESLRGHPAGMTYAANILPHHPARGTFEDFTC
Protocol: (§1) Oocytes expressed rASIC1a, rASIC1b, rASIC2a, and rASIC3 homomeric channels were prepared as described. Injected oocytes were kept for two–three days at 19 °C and then for up to seven days at 15 °C in ND-96 medium supplemented with gentamycin (50 μg·mL^−1) and containing (in mM): 96 NaCl, 2 KCl, 1.8 CaCl2, 1 MgCl2, and 10 HEPES titrated to pH 7.4 with NaOH. Electrophysiological recordings were performed using the GeneClamp500 amplifier (Axon Instruments, Inverurie, UK) at a holding potential of -50 mV. The data were filtered at 20 Hz and digitized at 100 Hz using the L780 AD converter (L-Card, Moscow, Russia). Microelectrodes were filled with 3 M KCl. The external bath solution was ND-96 with pH adjusted to 7.4/7.8 (10 mM HEPES) /8.5 (10 mM Tris). Nocistatin containing solutions were freshly prepared and buffered each experimental day in ND-96 bath solution (pH 7.4/7.8/8.5). Proton-activated currents through ASIC channels were elicited by application of ND-96, in which 10 mM of HEPES was substituted with 10 mM MES at pH 5.5/ 10 mM acetic acid at pH 4.5. The whole-cell recording was performed if a response to the control pH stimulus was stable in at least two replicates. Nocistatin-activated currents were elicited by application of nocistatin containing solutions with various concentrations of the peptide.
(§2) Extracellular solutions were applied using a computer-controlled valve system with a flow rate of 1 mL/min. The oocyte chamber volume was 80 µL. The validity of the application system for studying ASIC channels expressed in oocytes was confirmed in experiments by application of a Cl-free solution (containing (in mM): 130 NMDG, 1 MgGluc2, 2 KGluc, 5 HEPES) (pH 7.4). Fast application of proton/peptide-activating solution was performed at a flow rate of 1 mL/sec (the change of the bath solution occurred within 100 ms), followed by PC controlled flow stopping (from 5 to 15 s).
(§3) (d) The time course of curves’ decay was fitted using a mono-exponential equation: F4(x) = A1*e^(-x/τdes) + A0, where F4(x) is the current amplitude at the time point x, A1 is the maximal current amplitude, A0 is its steady-state value and τdes is the […].
(§4) All data are presented as mean ± SEM. The significance of normalized data differences was determined with a non-parametric Kruskal-Wallis ANOVA test with the significance level * p < 0.05 and ** p < 0.01; ns, non-significant.

uninjected oocytes = assay: Application to uninjected oocytes (negative control); format: cell-based, Xenopus laevis; conditions: 1 mM rNS
Protocol: as §1, with “peptide. […]” for “peptide.”

rat ASIC1a = target: T2, rat ASIC1a (Rattus norvegicus, UniProt P55926); assay: Whole-cell current activation, rat ASIC1a in X. laevis oocytes; format: cell-based; conditions: for ASIC1a current amplitude, % of control pH 5.5 stimulus: n = 4
T2 construct: expressed in transfected cells; host or cells: Xenopus laevis oocytes (injected)
T2 sequence (P55926 1-526): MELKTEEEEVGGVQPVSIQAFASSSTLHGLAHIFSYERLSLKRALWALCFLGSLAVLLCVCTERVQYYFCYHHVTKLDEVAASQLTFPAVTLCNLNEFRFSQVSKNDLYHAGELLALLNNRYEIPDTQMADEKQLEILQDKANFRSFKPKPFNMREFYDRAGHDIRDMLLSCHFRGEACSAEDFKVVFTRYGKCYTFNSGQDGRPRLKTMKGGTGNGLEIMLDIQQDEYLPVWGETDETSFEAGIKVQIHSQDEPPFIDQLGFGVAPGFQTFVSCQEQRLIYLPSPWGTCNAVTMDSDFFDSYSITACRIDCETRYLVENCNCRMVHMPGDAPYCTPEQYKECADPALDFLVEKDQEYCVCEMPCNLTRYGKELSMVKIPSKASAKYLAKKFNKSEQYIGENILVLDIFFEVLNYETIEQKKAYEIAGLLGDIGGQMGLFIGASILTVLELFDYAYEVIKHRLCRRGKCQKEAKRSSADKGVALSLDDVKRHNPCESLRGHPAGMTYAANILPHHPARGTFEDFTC
Protocol: as §1, §2
Analysis of electrophysiological data was performed using OriginPro 8.6 software (OriginLab, Northampton, MA, USA). Curves were fitted using different logistic equations:
(a) Usual logistic equation [33] F1(x) = A – A/(1 + (x/x0)^nH), where F1(x) is the current amplitude at nocistatin concentration x ([x]) (response at concentration x), A is the maximal current amplitude (or the maximum asymptote or the stabilized response for an infinite concentration), x0 is the value of [x] at which the function reach half their maximum value (the EC50 value), and nH is the Hill coefficient (slope factor or a level of cooperativity);
(b) Equation for the model of unequal sites occupation F2(x) = A/(1 + (x/EC501)^nH)*(1 + (x/EC502)), multiplication of two logistic equations where F2(x) is the current amplitude at nocistatin concentration x, A is the maximal current amplitude, [EC501] is the half-maximal concentration of nocistatin binding to pool of “cooperative” sites (or 0.5 probability of “cooperative” sites’ occupancy) and [EC502] is the half-maximal concentration of nocistatin binding to additional unequal site (or 0.5 probability of single site occupancy), and nH is the Hill coefficient (slope factor) for the pool of cooperative sites;
as §3, §4

Sequence: MPRVRSVVQARDAEPEADAEPVADEADEVEQKQLQ [rNS]
- Acurrent, nocistatin versus protons (rat ASIC1b; 1 mM rNS vs pH drop 7.4–5.5): did not differ between protons and nocistatin
- Desensitization time, difference between stimuli (rat ASIC1b; 1 mM rNS vs pH drop 7.4–5.5): No differences were observed in desensitization time
- tmax, nocistatin versus protons (rat ASIC1b; 1 mM rNS vs pH drop 7.4–5.5): no differences
- τdes (desensitization time constant) (rat ASIC1b; 1 mM rNS, conditioning pH 7.4, mean ± S.E. from 4–7 measurements): 0.5 ± 0.06 s
- Effect on uninjected oocytes (uninjected oocytes): did not produce any effects on the uninjected oocytes
- ASIC1a current amplitude, % of control pH 5.5 stimulus (rat ASIC1a; 1 mM nocistatin, conditioning pH 7.4): 95.5 ± 1.8%
- ASIC1a current amplitude, % of control pH 5.5 stimulus (rat ASIC1a; 1 mM nocistatin, conditioning pH 7.8): 89.5 ± 2.8%
- ASIC1a current amplitude, % of control pH 5.5 stimulus (rat ASIC1a; 1 mM nocistatin, conditioning pH 8.5): 86.7 ± 2.5%
- Maximal activating effect versus response to a pH drop of 7.4–5.5 (rat ASIC1a; 1 mM nocistatin, extracellular pH 7.4): comparable to the response to a pH drop of 7.4–5.5
- Acurrent, nocistatin versus protons (rat ASIC1a; 1 mM rNS vs pH drop 7.4–5.5): did not differ between protons and nocistatin
- tmax, nocistatin versus protons (rat ASIC1a; 1 mM rNS vs pH drop 7.4–5.5): no differences
- τdes (desensitization time constant) (rat ASIC1a; 1 mM rNS, conditioning pH 7.4, mono-exponential fit, mean ± S.E. from 4–7 measurements): 1.4 ± 0.1 s
- Hill coefficient (nH), integral current activation (rat ASIC1a; integral current, equation F2, n = 5): 4.8 ± 0.7
- Hill coefficient (nH) of activation (rat ASIC1a; peak amplitude, pH 7.4, equation F2, n = 5): 7.44 ± 0.95
